From patent publication US20030035843A1, “Method for processing and preserving collagen-based tissues for transplantation” (LifeCell Corporation, a Delaware corporation, priority 1990, published 2003)

Columns and labels:
porcine skin = experiment: Separation of epidermis and dermis of porcine skin by salt incubation; settings: 1 molar, 48 hours
human cadaver skin = experiment: Removal of epidermis/keratinocytes from human cadaver skin by enzyme or salt incubation
From the text: Alternatively, enzymes may be used to accomplish decellularization, including but not limited to dispase II, trypsin, and thermolysin. These enzymes react with different components of collagen and intercellular connections in achieving their effects. Dispase II attacks Type IV collagen, which is a component of the lamina densa and anchoring fibrils of the basement membrane. Thermolysin attacks the bulbous phemphigoid antigen in the hemidesmosome of the basal layer of keratinocytes. Trypsin attacks the desmosome complex between cells. Due to the proteolytic nature of these enzymes, care must be taken that cellular removal occurs without significant damage to the extracellular matrix, including the basement membrane complex. This is a function of concentration, time and temperature. If used for too long a time or at too high a concentration, dispase II for example can completely remove the basement membrane complex from the dermis.

removal of keratinocytes (human cadaver skin; 200 ug/ml, 30 minutes, 4° C., human cadaver skin) | Molecule | separation of the epidermis and dermis (porcine skin) | separation of the epidermis and dermis (human cadaver skin; 1 molar, 16 hours, human skin)
– | [Cl-].[Na+] [sodium chloride] | clean separation of the epidermis and dermis without damage to the basement membrane complex | clean separation of the epidermis and dermis without damage to the basement membrane complex
essentially remove all keratinocytes | Thermolysin: enzyme used for decellularization; attacks the bulbous phemphigoid antigen in the hemidesmosome (protein, UniProt P00800 233-548, looked up) Thermolysin: ITGTSTVGVGRGVLGDQKNINTTYSTYYYLQDNTRGNGIFTYDAKYRTTLPGSLWADADNQFFASYDAPAVDAHYYAGVTYDYYKNVHNRLSYDGNNAAIRSSVHYSQGYNNAFWNGSQMVYGDGDGQTFIPLSGGIDVVAHELTHAVTDYTAGLIYQNESGAINEAISDIFGTLVEFYANKNPDWEIGEDVYTPGISGDSLRSMSDPAKYGDPDHYSKRYTGTQDNGGVHINSGIINKAAYLISQGGTHYGVSVVGIGRDKLGKIFYRALTQYLTPTSNFSQLRAAAVQSATDLYGSTSQEVASVKQAFDAVGVK | – | –
